The results in this text go back to ChEMBL document CHEMBL1201862, “PubChem BioAssay data set” (2004).

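Five compound concentrations were applied to cells in 96-well plates for 48 hours; endpoints were derived by simple linear interpolation of the resulting dose-response curve. GI50: concentration for 50% inhibition of growth.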 Activity calls are given as the source filed them. Cut-off read from the data, not from the text of the source: active = GI50 up to about 1.1 µM and inactive = higher.

Some test systems named below: 786-0; A498; A549; ACHN; COLO 205; DU-145; HOP-92; IGROV-1; KM12; M14; MDA-MB-435; NCI-H226; OVCAR-4; OVCAR-5; RPMI-8226; SK-MEL-28; SN12C; SNB-75; UO-31; SF-539.
Common to all, as to assay: NCI-60 cell line screen, 48 h

As to `Cn1c(=O)c2c(nc3n(Cc4ccccc4)c(=O)c(NCCBr)cn23)n(C)c1=O`, the GI50 was 19.3 µM (inactive) with 786-0; 34.9 µM (inactive) with A498; 29.6 µM (inactive) in the assay on A549; 15.4 µM (inactive) with ACHN; 49.1 µM (inactive) with COLO 205; 27.8 µM (inactive) in the assay with DU-145. In addition, the GI50 was 12 µM (inactive) in the assay on HOP-92; 33 µM (inactive) in the assay on IGROV-1; 63.5 µM (inactive) with KM12; 33.1 µM (inactive) in the assay with M14; 49.5 µM (inactive) in the assay with MDA-MB-435; 19.9 µM (inactive) in the assay with NCI-H226. In addition, the GI50 with OVCAR-4 is 16.3 µM (inactive); in the assay on OVCAR-5, 28.4 µM (inactive); in the assay on RPMI-8226, 23.8 µM (inactive); in the assay on SK-MEL-28 it was 53.5 µM (inactive); with SN12C it was 32.6 µM (inactive); with SNB-75 it was 20 µM (inactive). Besides, the GI50 in the assay with UO-31 is 13 µM (inactive).

For the compound `Cc1ccc2c(=O)c(-c3nnsn3)c[nH]c2n1`, the GI50 in the assay with 786-0, with A498, with A549, in the assay on ACHN, with COLO 205 and in the assay with DU-145 was > 100 µM (inactive) in each case. Moreover, the GI50 in the assay with IGROV-1, in the assay with KM12, in the assay with M14, in the assay on MDA-MB-435, in the assay with NCI-H226 and with OVCAR-4 was > 100 µM (inactive) in each case. The GI50 in the assay with OVCAR-5, in the assay on RPMI-8226, in the assay with SK-MEL-28, in the assay on SN12C and in the assay on UO-31 was > 100 µM (inactive) each time.

Regarding `N=c1nc(N)nc(N)n1-c1ccc(S(N)(=O)=O)cc1`, the GI50 with 786-0, in the assay with A498, in the assay with A549, in the assay with ACHN, with DU-145 and in the assay on HOP-92 was > 100 µM (inactive) each time. For the same compound, the GI50 in the assay with IGROV-1, in the assay on KM12, in the assay on M14, with MDA-MB-435, with NCI-H226 and in the assay on OVCAR-4 was > 100 µM (inactive) each time. The GI50 with OVCAR-5, in the assay with SK-MEL-28, in the assay on SN12C and with UO-31 was > 100 µM (inactive) in each case.

On to `Cc1n[n+](CC(=O)c2ccccc2)c2sc(N)nn12`, for which the GI50 with 786-0 is > 100 µM (inactive); in the assay with A498 it was > 100 µM (inactive); with A549 it was 96.8 µM (inactive); in the assay on ACHN, > 100 µM (inactive); in the assay on COLO 205 it was > 100 µM (inactive); in the assay with DU-145, > 100 µM (inactive). Besides, the GI50 with IGROV-1, in the assay on KM12, in the assay on M14, in the assay with MDA-MB-435, with NCI-H226 and with OVCAR-4 was > 100 µM (inactive) each time. Moreover, the GI50 with OVCAR-5, with RPMI-8226, in the assay with SK-MEL-28, in the assay on SN12C, with SNB-75 and in the assay on UO-31 was > 100 µM (inactive) throughout.

On to `O=C1CCCCCCCCCCC1CN(Cc1ccccc1)Cc1ccccc1` (centres undefined), for which the GI50 with 786-0 is 42.6 µM (inactive); with A549, 40.7 µM (inactive); in the assay on ACHN, 30 µM (inactive); in the assay with COLO 205, > 100 µM (inactive); with DU-145 it was 59 µM (inactive); in the assay with HOP-92 it was 78.2 µM (inactive). The GI50 was > 100 µM (inactive) in the assay with IGROV-1; 83.9 µM (inactive) in the assay with KM12; 48 µM (inactive) with M14; 37.1 µM (inactive) in the assay with MDA-MB-435; 51.3 µM (inactive) with NCI-H226; > 100 µM (inactive) in the assay with OVCAR-4. The GI50 in the assay on OVCAR-5 is > 100 µM (inactive); in the assay with RPMI-8226 it was 22.2 µM (inactive); in the assay with SF-539, 45.2 µM (inactive); in the assay with SK-MEL-28, 37.7 µM (inactive); with SN12C it was > 100 µM (inactive); in the assay on SNB-75, 2.84 µM (inactive). Moreover, the GI50 in the assay with UO-31 was 48.5 µM (inactive).

With `COc1ccc(OCC(=N/NC(=O)c2ccncc2)/N=C/c2ccncc2)cc1`, the GI50 in the assay on 786-0 is > 100 µM (inactive); with A498, 59.3 µM (inactive); in the assay on A549 it was > 100 µM (inactive); in the assay on ACHN, > 100 µM (inactive); in the assay with COLO 205, 74 µM (inactive); in the assay on DU-145 it was > 100 µM (inactive). In addition, the GI50 was 29.2 µM (inactive) in the assay on HOP-92; 91.2 µM (inactive) with IGROV-1; 60 µM (inactive) with KM12; 82 µM (inactive) with M14; 22.6 µM (inactive) with MDA-MB-435; 67.5 µM (inactive) in the assay on NCI-H226. Moreover, the GI50 in the assay on OVCAR-4 was > 100 µM (inactive); with OVCAR-5 it was > 100 µM (inactive); in the assay with RPMI-8226, 40.7 µM (inactive); in the assay with SF-539, > 100 µM (inactive); with SK-MEL-28 it was 75.5 µM (inactive); in the assay on SN12C, > 100 µM (inactive).

For the compound `O=c1onc2n1-c1ccc(Cl)cc1C(=S)N1CSCC21` (centres undefined), the GI50 is 23.1 µM (inactive) with 786-0; 23.1 µM (inactive) in the assay with A498; 34.8 µM (inactive) in the assay with A549; 66.8 µM (inactive) in the assay with ACHN; 18.4 µM (inactive) in the assay on COLO 205; 34.2 µM (inactive) in the assay on DU-145. Further, the GI50 is 26.5 µM (inactive) in the assay with IGROV-1; 29.4 µM (inactive) with KM12; 11.1 µM (inactive) with M14; 9.46 µM (inactive) in the assay on MDA-MB-435; 28.1 µM (inactive) in the assay on NCI-H226; 59.2 µM (inactive) with OVCAR-4. The GI50 with OVCAR-5 is 31.3 µM (inactive); with RPMI-8226, 31.3 µM (inactive); in the assay on SK-MEL-28, 52.5 µM (inactive); in the assay with SN12C it was 29.6 µM (inactive); in the assay with SNB-75, 30.4 µM (inactive); with UO-31, 59 µM (inactive).

In the case of `O=[N+]([O-])C(=C(Nc1ccccc1)Nc1ccccc1)/C(Cl)=C(\Cl)[N+](=O)[O-]`, the GI50 in the assay with 786-0 was 3.15 µM (inactive); in the assay on A498, 19.7 µM (inactive); in the assay on A549, 10.8 µM (inactive); in the assay with ACHN, 2.61 µM (inactive); in the assay with COLO 205, 2.67 µM (inactive); in the assay with DU-145 it was 2.65 µM (inactive). The GI50 in the assay with KM12 was 3.98 µM (inactive); in the assay with M14, 4.75 µM (inactive); with MDA-MB-435, 3.26 µM (inactive); in the assay on NCI-H226, 12.7 µM (inactive); with OVCAR-4, 6.62 µM (inactive); with OVCAR-5 it was 8.13 µM (inactive). Also, the GI50 is 3.15 µM (inactive) with RPMI-8226; 1.84 µM (inactive) in the assay on SF-539; 3.62 µM (inactive) with SK-MEL-28; 2.48 µM (inactive) in the assay on SN12C; 7.57 µM (inactive) in the assay with SNB-75; 3.07 µM (inactive) in the assay with UO-31.

Regarding `CC1(CCCC2(C)CCNC2=O)OCCO1` (centres undefined), the GI50 with 786-0, in the assay with A498, in the assay with A549, in the assay on ACHN, with COLO 205 and in the assay on DU-145 was > 10 µM (inactive) each time. For the same compound, the GI50 in the assay on IGROV-1, in the assay with KM12, in the assay with M14, in the assay on MDA-MB-435, in the assay on NCI-H226 and in the assay on OVCAR-4 was > 10 µM (inactive) each time. In addition, the GI50 in the assay with OVCAR-5, with RPMI-8226, in the assay with SF-539, in the assay on SK-MEL-28, with SN12C and in the assay with SNB-75 was > 10 µM (inactive) throughout. Further, the GI50 in the assay with UO-31 is > 10 µM (inactive).

Turning to `COCn1cnc2c(=O)n(-c3ccc(OC)cc3)c(=S)n(-c3ccc(OC)cc3)c21`, the GI50 in the assay on 786-0, in the assay with A498, in the assay with A549, in the assay with ACHN, with COLO 205 and in the assay on DU-145 was > 100 µM (inactive) each time. Also, the GI50 in the assay with IGROV-1 was > 100 µM (inactive); in the assay with KM12, > 100 µM (inactive); with M14, > 100 µM (inactive); with MDA-MB-435, > 100 µM (inactive); with NCI-H226 it was > 100 µM (inactive); in the assay on OVCAR-4, 89.3 µM (inactive). Further, the GI50 in the assay with OVCAR-5, with RPMI-8226, in the assay with SF-539, in the assay with SK-MEL-28, in the assay with SN12C and in the assay with SNB-75 was > 100 µM (inactive) each time. For the same compound, in the assay on UO-31, the GI50 is > 100 µM (inactive).

For the compound `CC[C@]1(O)C[C@H]2CN(CCc3c([nH]c4ccccc34)[C@@](C(=O)OC)(c3cc4c(cc3OC)N(C)[C@H]3[C@@](O)(C(=O)OC)[C@H](OC(C)=O)[C@]5(CC)C=CCN6CC[C@]43[C@@H]65)C2)C1`, the GI50 is 0.000964 µM (active) in the assay on 786-0; 0.00252 µM (active) with A498; 0.00157 µM (active) in the assay on A549; 0.00849 µM (active) in the assay on ACHN; 0.000435 µM (active) with COLO 205; 0.000395 µM (active) with DU-145. In addition, the GI50 was 0.00227 µM (active) with HOP-92; 0.00129 µM (active) with IGROV-1; 0.000493 µM (active) in the assay with KM12; 0.000762 µM (active) in the assay with M14; 0.000386 µM (active) in the assay with MDA-MB-435; 0.00115 µM (active) in the assay on NCI-H226. The GI50 in the assay on OVCAR-4 was 0.136 µM (active); with RPMI-8226, 0.000679 µM (active); in the assay on SF-539, 0.000605 µM (active); in the assay with SK-MEL-28 it was 0.00165 µM (active); in the assay with SN12C, 0.00132 µM (active); in the assay with UO-31, 0.143 µM (active).
